In patent US6416775B1, “Dry spreadable carrier for pesticides” (priority 1996, dated 2002) one finds weight loss data, which are given here for one compound.

Structures are written as SMILES.

A short description of this data set: Volatile materials in ventilating oven. It counts as physicochemical. Particulars: after 2 hours at 141° F. (=60.5° C.) in a ventilating oven. The protocol: The moisture content of raw material Celite 500 is 3.7 weight percent. So, the weight of raw material Celite 500 is close to the dry weight of Celite 500. According to the product specifications of Supragil MNS/90, Soprophor S/40-P, and Supragil WP, the moisture contents of these components are no higher than 2 weight percent. Also, samples of chlorpyrifos technical were tested for volatile materials in a ventilating oven. The weight loss after 2 hours at 141° F. (=60.5° C.) was only 0.6 weight percent. […] Therefore, the dry spreadable granular product as manufactured above contains approximately 2.0 weight percent chlorpyrifos.

Regarding `CCOP(=S)(OCC)Oc1nc(Cl)c(Cl)cc1Cl` [Chlorpyrifos], the weight loss was determined as 0.6 weight percent.
